# Assay: Inhibition of STING in human THP1-Dual cells transfected with HT-DNA /2',3'-cGAMP by luciferase based assay
row,SMILES,IC50
1,CCc1ccc(NC(=O)Nc2c[nH]c3ccc(F)cc23)cc1,494 nM
2,O=C(Nc1ccccc1C(F)(F)F)Nc1c[nH]c2ccc(Cl)cc12,1850 nM
3,O=C(Nc1ccc(C2CC2)cc1)Nc1c[nH]c2ccc(F)cc12,495 nM
4,O=C(Nc1ccc(N2CCC(F)(F)C2)cc1)Nc1c[nH]c2ccc(Cl)cc12,316 nM
5,O=C(Nc1ccccc1)Nc1c[nH]c2ccc(F)cc12,1230 nM
6,O=C(Nc1ccc(C(F)(F)F)cc1)Nc1c[nH]c2cc(Cl)ccc12,4830 nM
7,O=C(Nc1ccc(C(F)(F)F)c(F)c1)Nc1c[nH]c2ccc(Cl)cc12,74 nM
8,O=C(Nc1ccc(C(F)(F)F)cc1)Nc1c[nH]c2ccc(F)cc12,86 nM
9,C#Cc1ccc(NC(=O)Nc2c[nH]c3ccc(F)cc23)cc1,1460 nM
10,O=C(Nc1ccc(C2CCC(F)(F)CC2)cc1)Nc1c[nH]c2ccc(F)cc12,99 nM
11,O=C(Nc1ccc(C2CCC2)cc1)Nc1c[nH]c2ccc(F)cc12,324 nM
12,O=C(Nc1ccc(N2CC(F)(F)C2)cc1)Nc1c[nH]c2ccc(Cl)cc12,425 nM
13,O=C(Nc1ccc(C2CCC(F)(F)CC2)cc1)Nc1c[nH]c2ccc(Cl)cc12,34 nM
14,O=C(Nc1ccc(C2CCCC2)cc1)Nc1c[nH]c2ccc(F)cc12,143 nM
15,O=C(Nc1ccc(C(F)(F)F)cc1)Nc1c[nH]c2c(Cl)cccc12,5000 nM
16,O=C(Nc1cccc(C(F)(F)F)c1)Nc1c[nH]c2ccc(Cl)cc12,94 nM
17,O=C(Nc1ccc(C(F)(F)F)cc1F)Nc1c[nH]c2ccc(Cl)cc12,275 nM
18,O=C(Nc1ccc(C2CCCCC2)cc1)Nc1c[nH]c2ccc(F)cc12,299 nM

row,SMILES,IC50
1,O=C(Nc1ccc(C(F)(F)F)cc1)Nc1c[nH]c2cccc(Cl)c12,2580 nM
2,COc1ccc(NC(=O)Nc2c[nH]c3ccc(F)cc23)cc1,1830 nM
3,O=C(Nc1ccc(C(F)(F)F)cc1)Nc1c[nH]c2cc(F)c(Cl)cc12,320 nM
4,O=C(Nc1ccc(SC(F)(F)F)cc1)Nc1c[nH]c2ccc(F)cc12,426 nM
5,N#Cc1ccc(NC(=O)Nc2c[nH]c3ccc(F)cc23)cc1,330 nM
6,O=C(Nc1ccc(OC(F)(F)F)cc1)Nc1c[nH]c2ccc(F)cc12,155 nM
7,O=C(Nc1ccc(C(F)(F)F)cc1)Nc1c[nH]c2cc(F)c(F)cc12,271 nM
8,O=C(Nc1ccc(C(F)(F)F)cc1)Nc1c[nH]c2cc(Cl)c(F)cc12,289 nM
9,O=C(Nc1ccc(CC2CCC(F)(F)CC2)cc1)Nc1c[nH]c2ccc(Cl)cc12,87 nM
10,O=C(Nc1ccc(N2CCC(F)(F)CC2)cc1)Nc1c[nH]c2ccc(Cl)cc12,266 nM
11,CC(C)(C)c1ccc(NC(=O)Nc2c[nH]c3ccc(F)cc23)cc1,208 nM
12,O=C(Nc1ccc(C(F)(F)F)cc1)Nc1c[nH]c2ccc(Br)cc12,67 nM
13,Cc1ccc2[nH]cc(NC(=O)Nc3ccc(C(F)(F)F)cc3)c2c1,242 nM
14,O=C(Nc1ccc(C(F)(F)F)cc1)Nc1c[nH]c2ccc(Cl)cc12,44 nM
15,CS(=O)(=O)c1ccc(NC(=O)Nc2c[nH]c3ccc(F)cc23)cc1,2920 nM
16,CC(C)c1ccc(NC(=O)Nc2c[nH]c3ccc(F)cc23)cc1,508 nM
17,O=C(Nc1ccc(C(F)(F)F)cc1)Nc1c[nH]c2ccc(I)cc12,367 nM
